Source: patent US20220023281A1, “HETEROCYCLIC SPIRO-COMPOUNDS AS AM2 RECEPTOR INHIBITORS” (THE UNIVERSITY OF SHEFFIELD, priority 2018, published 2022)

What follows are compounds tested against T1, AM2 receptor-expressing cells (1321N1 cells transfected with CALCRL+RAMP3) (Homo sapiens, UniProt O60896+Q16602) (assay: AM2 receptor inhibition, LANCE cAMP agonist-antagonist competition assay (AM2 D2 protocol)). Settings: inhibition of AM induced cAMP in 1321N1 cells expressing CALCRL+RAMP3; read-out: AM2 D2 protocol: pIC50 (converted).
T1 construct: host or cells: 1321N1 cells
Type: cell-based
Procedure: Compounds were assessed for their ability to inhibit ligand-induced elevations of cAMP, using the Perkin Elmer LANCE cAMP assay using commercially-available cells expressing a specific receptor of interest using the following general procedure:
Compounds were prepared in dimethyl sulfoxide (DMSO—99.9% pure) (Sigma Aldrich, Cat #: D4540) added to powder stocks to produce a 20 mM solution (100% DMSO) that was sonicated at 37° C. for 10 minutes to fully dissolve the compounds. The 20 mM stocks were diluted further in DMSO to produce a 2 mM solution that was sonicated at 37° C. for 10 minutes. 2 mM stocks were dissolved in assay/stimulation buffer to produce a 400 μM solution that was sonicated at 37° C. for 10 minutes for all cAMP assays. All stocks were stored at −20° C. Then serial dilution (Dilution factor: 10) was performed to achieve the desire experimental concentrations.
Competition assays were performed according to the manufactures instructions using LANCE® TR-FRET cAMP assay kit (Perkin Elmer, Cat #: AD0264). Serial dilutions (3 μl/well) of the molecules were plated in a 384-well OptiPlate (Perkin Elmer, Cat #: 6007299) in duplicates. Appropriate controls (100% stimulation: Forskolin and 0% stimulation: Vehicle control) (6 μl/well) were included in each plate for data normalization. Following the compound addition, 6 μl of G-protein coupled receptor overexpressing cells/Alexa Fluor antibody solution (1:100 dilution) was added in each well at a desired density of 2500 cells/well. The overexpressing cell lines were purchased from DiscoveRx, Birmingham, UK. After spinning the plate at 1000 rpm for 1 minute and vortexing briefly, the cells were pre-incubated with the compounds for 30 minutes at room temperature (covered). Then 3 μl of the equivalent peptide ligand (EC50 dose) was added to all the wells except vehicle and forskolin controls. The plate were then spun down at 1000 rpm for 1 minute and once finished they were vortexed briefly and covered. Cells were stimulated in the presence of the ligands for 15 minutes at room temperature. After stimulation 12 μl of detection mix (Europium-Chelate streptavidin/biotinylated cAMP tracer solution) was added to all wells and incubated for 60 minutes at room temperature. The plate was then read on the Enspire multimode Plate reader (Perkin Elmer), at; 320/340 nm excitation and 615/665 nm emission was recorded.
Assay/Stimulation Buffer (30 mL)—pH 7.4 • 28 mL Hank's Balanced salt solution (+MgCl2, +CaCl2))—(Thermo Fisher Cat #:14170112) • 150 μl HEPES (1M)—(Thermo Fisher Cat #:15630080) • 400 μl Stabilizer (DTPA) Purified BSA (7.5%)—(Perkin Elmer, Cat #: CR84-100) • 60 μl IBMX (250 mM)—(Sigma Aldrich, Cat #: 15879)
The ability of a compound to inhibit the AM induced cAMP activation in AM2 receptor-expressing cells (1321N1 cells transfected with CALCRL+RAMP3, sourced from DiscoverX catalogue number 95-0169C6) was assessed using the protocol above.

T1 sequence (Q16602 23-461): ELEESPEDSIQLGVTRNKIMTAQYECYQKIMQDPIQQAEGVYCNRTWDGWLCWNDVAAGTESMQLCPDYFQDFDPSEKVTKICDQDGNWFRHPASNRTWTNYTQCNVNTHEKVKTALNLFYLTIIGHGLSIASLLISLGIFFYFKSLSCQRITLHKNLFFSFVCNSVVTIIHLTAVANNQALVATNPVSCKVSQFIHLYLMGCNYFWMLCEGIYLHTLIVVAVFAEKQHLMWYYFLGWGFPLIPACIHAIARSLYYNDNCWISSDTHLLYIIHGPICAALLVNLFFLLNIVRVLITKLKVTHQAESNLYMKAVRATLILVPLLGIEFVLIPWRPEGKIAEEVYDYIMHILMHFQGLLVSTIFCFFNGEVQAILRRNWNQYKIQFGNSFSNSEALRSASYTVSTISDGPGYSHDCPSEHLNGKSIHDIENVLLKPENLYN
T1 sequence (O60896 24-148): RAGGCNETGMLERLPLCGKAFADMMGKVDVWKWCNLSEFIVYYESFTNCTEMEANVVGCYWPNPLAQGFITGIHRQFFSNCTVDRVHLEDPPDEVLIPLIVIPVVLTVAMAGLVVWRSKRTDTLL

| Structure (SMILES) | IC50 [µM] |
| --- | --- |
| CCC1(C(=O)N(CC(=O)Nc2ccc3c(c2)C[C@@]2(C3)C(=O)Nc3ncccc32)[C@H]2CCCNC2)CCOCC1 [Example 14, 4-Ethyl-N-(2-oxo-2-(((R)-2′-oxo-1,1′,2′,3-tetrahydrospiro[indene-2,3′-pyrrolo[2,3-b]pyridin]-5-yl)amino)ethyl)-N—((S)-piperidin-3-yl)tetrahydro-2H-pyran-4-carboxamide] | 0.288 |
| CC(=O)N1CCN(C(=O)N(CC(=O)Nc2ccc3c(c2)C[C@@]2(C3)C(=O)Nc3ncccc32)[C@H]2CCCNC2)CC1 [Example 23, 4-Acetyl-N-(2-oxo-2-(((R)-2′-oxo-1,1′,2′,3-tetrahydrospiro[indene-2,3′-pyrrolo[2,3-b]pyridin]-5-yl)amino)ethyl)-N—((S)-piperidin-3-yl)piperazine-1-carboxamide] | 2.88 |
| CC(C)(C#N)C(=O)N(CC(=O)Nc1ccc2c(c1)C[C@@]1(C2)C(=O)Nc2ncccc21)[C@H]1CCCNC1 [Example 10, 2-Cyano-2-methyl-N-(2-oxo-2-(((R)-2′-oxo-1,1′,2′,3-tetrahydrospiro[indene-2,3′-pyrrolo[2,3-b]pyridin]-5-yl)amino)ethyl)-N—((S)-piperidin-3-yl)propenamide] | 0.0501 |
| CC(C)(C)C(=O)N(CC(=O)Nc1ccc2c(c1)C[C@@]1(C2)C(=O)Nc2ncccc21)C1CCC2CCC1N2 (single isomer, unassigned) [Example 31A] | 0.316 |
| CNC(=O)N1CCC(C)(C(=O)N(CC(=O)Nc2ccc3c(c2)C[C@@]2(C3)C(=O)Nc3ncccc32)[C@H]2CCCNC2)CC1 [Example 20, N1,4-Dimethyl-N4-[2-oxo-2-[[(3R)-2-oxospiro[1H-pyrrolo[2,3-b]pyridine-3,2′-indane]-5′-yl]amino]ethyl]-N4-[(3S)-3-piperidyl]piperidine-1,4-dicarboxamide] | 0.0562 |
| CC(C)(C)C(=O)N(CC(=O)Nc1ccc2c(c1)CC1(C2)C(=O)Nc2ncccc21)C1CCCNC1 (stereo not drawn) [Example 1, N-(2-Oxo-2-((2′-oxo-1,1′,2′,3-tetrahydrospiro[indene-2,3′-pyrrolo[2,3-b]pyridin]-5-yl)amino)ethyl)-N-(piperidin-3-yl)pivalamide] | 0.0145 |
| CC(C)(C(=O)N(CC(=O)Nc1ccc2c(c1)C[C@@]1(C2)C(=O)Nc2ncccc21)[C@H]1CCCNC1)C(F)(F)F [Example 9, 3,3,3-Trifluoro-2,2-dimethyl-N-(2-oxo-2-(((R)-2′-oxo-1,1′,2′,3-tetrahydrospiro[indene-2,3′-pyrrolo[2,3-b]pyridin]-5-yl)amino)ethyl)-N—((S)-piperidin-3-yl)propanamide] | 0.0437 |
| CC1(C(=O)N(CC(=O)Nc2ccc3c(c2)C[C@@]2(C3)C(=O)Nc3ncccc32)[C@H]2CCCNC2)CCC1 [Example 8, 1-Methyl-N-(2-oxo-2-(((R)-2′-oxo-1,1′,2′,3-tetrahydrospiro[indene-2,3′-pyrrolo[2,3-b]pyridin]-5-yl)amino)ethyl)-N—((S)-piperidin-3-yl)cyclobutanecarboxamide] | 0.145 |
| CC(C)(CC(F)(F)F)C(=O)N(CC(=O)Nc1ccc2c(c1)C[C@@]1(C2)C(=O)Nc2ncccc21)[C@H]1CCCNC1 [Example 13, 4,4,4-Trifluoro-2,2-dimethyl-N-(2-oxo-2-(((R)-2′-oxo-1,1′,2′,3-tetrahydrospiro[indene-2,3′-pyrrolo[2,3-b]pyridin]-5-yl)amino)ethyl)-N—((S)-piperidin-3-yl)butanamide] | 0.0631 |
| C[C@@H]1CNC[C@@H](N(CC(=O)Nc2ccc3c(c2)C[C@@]2(C3)C(=O)Nc3ncccc32)C(=O)C(C)(C)C)C1 (relative stereo) [Example 27, N-((3S*,5S*)-5-Methylpiperidin-3-yl)-N-(2-oxo-2-(((R)-2′-oxo-1,1′,2′,3-tetrahydrospiro[indene-2,3′-pyrrolo[2,3-b]pyridin]-5-yl)amino)ethyl)pivalamide] | 0.0513 |
| CC(C)(C)C(=O)N(CC(=O)Nc1ccc2c(c1)C[C@@]1(C2)C(=O)Nc2ncccc21)C1CCC2CCC1N2 (single isomer, unassigned) [Example 31B] | 0.2 |
| CC(C)(C)C(=O)N(CC(=O)Nc1ccc2c(c1)CC1(C2)C(=O)Nc2ncccc21)[C@H]1CCNC1 (stereo partly drawn) [Example 24, N-(2-Oxo-2-((2′-oxo-1,1′,2′,3-tetrahydrospiro[indene-2,3′-pyrrolo[2,3-b]pyridin]-5-yl)amino)ethyl)-N—((S)-pyrrolidin-3-yl)pivalamide] | 0.132 |
